Source: patent publication US20150218638A1, “METHODS FOR ASSESSMENT OF PEPTIDE-SPECIFIC IMMUNITY” (priority 2012, published 2015)

System: heparinized whole blood
Test: Ex vivo induction of immune-function-related mRNA in heparinized whole blood, real time PCR
Type: cell-based
Conditions: 37° C., 4 hours, vs PBS

## leucoagglutinin [PHA-L]
  CCL4 mRNA induction: induced
  CTLA4 mRNA induction: induced
  CXCL3 mRNA induction: induced
  CXCL10 mRNA induction: induced
  GMCSF mRNA induction: induced
  IFNG mRNA induction: induced
  IL4 mRNA induction: induced
  IL10 mRNA induction: induced
  TNFSF2 mRNA induction: induced
  beta actin (ACTB) mRNA induction (control housekeeping gene): not induced
